Patent US11464802B2, “3-substituted piperidine compounds for Cbl-b inhibition, and use thereof” (Nurix Therapeutics, Inc., priority 2019, dated 2022)
Where two headings read alike, the source gives them in different places.

Tests used:
Cbl-b = Cbl-b (Homo sapiens (Human), UniProt Q13191); experiment: Cbl-b displacement assay (Cbl-b inhibition assay), TR-FRET probe displacement, Biological Example 1; type: binding
Experimental: Candidate compounds were evaluated for their ability to bind and inhibit Cbl-b, an E3 ubiquitin-protein ligase, as evidenced by their ability to displace a fluorophore-labeled probe (Example 46) bound to Cbl-b.
The ability of candidate compounds to displace a known inhibitor and thereby inhibit Cbl-b activity was measured by monitoring the interaction of Cbl-b with a fluorophore-labeled probe in the presence of the candidate compound. A truncated variant of Cbl-b (UniProt number Q13191; SEQ ID NO:1) containing an Avitag at its N-terminus was co-expressed with BirA biotin ligase and purified using a standard protocol (see Dou et al., Nature Structural and Molecular Biology 8: 982-987, 2013; Avidity LLC).
Fluorescently-labeled inhibitor probe was synthesized and tagged with BODIPY FL (Example 46). Cbl-b displacement assays were performed in a 384-well plate at room temperature in a 10 μL reaction volume by pre-incubating 0.5 nM Cbl-b or 0.125 nM Cbl-b (final concentration, indicated as “High” and “Low”, respectively) in an assay buffer containing 20 mM HEPES pH 7.5, 150 mM NaCl, 0.01% Triton X-100, 0.01% BSA, and 0.5 mM TCEP in the presence of a candidate compound in 1% DMSO (final concentration) for 1 hour. After incubation in the presence of the candidate compound, the plate was incubated for an additional 1 hour in the presence of an approximate EC40 binding saturation consisting of 150 nM fluorescently-labeled inhibitor probe and 2 nM Streptavidin-Terbium (Cisbio) (final concentrations). Following the 1 hour incubation, the plates were read for TR-FRET signal at 520/620 nM using an Envision plate reader (Perkin Elmer).

[1] = test system: primary human total T-cells; experiment: Primary human total T-cell activation: IL-2 secretion, Biological Example 2; type: cell-based; settings: 48 hours, fold change over baseline; for fold induction at 0.3 µM: inhibitor 0.3 μM; for fold induction at 1 µM: inhibitor 1 μM; for fold induction at 3 µM: inhibitor 3 μM
[2] = test system: primary human total T-cells; experiment: Primary human total T-cell activation: CD25 surface staining, Biological Example 2; type: cell-based; settings: 48 hours, fold change over baseline; for fold induction at 0.3 µM: inhibitor 0.3 μM; for fold induction at 1 µM: inhibitor 1 μM; for fold induction at 3 µM: inhibitor 3 μM
[3] = 0.5 nM Cbl-b final concentration (High), read-out: Cbl-b activity IC50 (High)
[4] = anti-CD3/anti-CD28 co-stimulation
[5] = anti-CD3/anti-CD28 co-stimulation, read-out: IL-2 secretion CD3/CD28 1 μM
[6] = anti-CD3 alone, read-out: IL-2 secretion CD3 1 μM
[7] = anti-CD3/anti-CD28 co-stimulation, read-out: CD25 staining CD3/CD28 1 μM
[8] = anti-CD3 alone, read-out: CD25 staining CD3 1 μM
[9] = Cbl-b concentration (High or Low) not given, read-out: IC50 values in the Cbl-b inhibition assay of Biological Example 1

Sequence of Cbl-b (Q13191 36-427): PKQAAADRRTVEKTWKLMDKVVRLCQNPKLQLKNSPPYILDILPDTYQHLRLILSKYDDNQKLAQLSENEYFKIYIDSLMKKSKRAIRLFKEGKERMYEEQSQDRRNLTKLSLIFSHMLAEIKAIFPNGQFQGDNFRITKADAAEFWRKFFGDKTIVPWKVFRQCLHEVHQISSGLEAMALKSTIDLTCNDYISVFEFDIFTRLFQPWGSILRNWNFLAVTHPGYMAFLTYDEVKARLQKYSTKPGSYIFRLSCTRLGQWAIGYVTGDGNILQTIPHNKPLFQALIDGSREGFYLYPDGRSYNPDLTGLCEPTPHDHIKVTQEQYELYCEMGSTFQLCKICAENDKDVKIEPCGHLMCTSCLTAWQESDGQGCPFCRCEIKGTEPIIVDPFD

| SMILES | IC50 (Cbl-b; [3]) [nM] | fold induction at 0.3 µM [1, 4] | fold induction at 1 µM [1, 5] | fold induction at 1 µM [1, 6] | fold induction at 3 µM ([1]; anti-CD3 alone) | fold induction at 0.3 µM [2, 4] | fold induction at 1 µM [2, 7] | fold induction at 1 µM [2, 8] | fold induction at 3 µM ([2]; anti-CD3 alone) | IC50 (Cbl-b; [9]) [nM] |
| --- | --- | --- | --- | --- | --- | --- | --- | --- | --- | --- |
| C[C@H]1CN(Cc2cc3c(c(C(F)(F)F)c2)CN(c2cccc(C4(Cc5nncn5C)COC4)c2)C3=O)CCC1(F)F [Compound 9, (S)-6-((4,4-difluoro-3-methylpiperidin-1-yl)methyl)-2-(3-(3-((4-methyl-4H-1,2,4-triazol-3-yl)methyl)oxetan-3-yl)phenyl)-4-(trifluoromethyl)isoindolin-1-one] | 5.1 to 100 | 11 to 15 | > 15 | 0.34 to 0.66 | 0.34 to 0.66 | 1.25 to 1.39 | > 1.39 | > 1.14 | > 1.14 | – |
| Cn1cnnc1CC1(c2cccc(N3Cc4c(cc(CN5CCC(F)(F)[C@@H](C#N)C5)cc4C(F)(F)F)C3=O)c2)COC1 [Compound 10, (R)-4,4-difluoro-1-((2-(3-(3-((4-methyl-4H-1,2,4-triazol-3-yl)methyl)oxetan-3-yl)phenyl)-3-oxo-7-(trifluoromethyl)isoindolin-5-yl)methyl)piperidine-3-carbonitrile] | < 1 | 11 to 15 | 11 to 15 | < 0.33 | < 0.33 | 1.25 to 1.39 | 1.25 to 1.39 | 1.05 to 1.14 | 1.05 to 1.14 | < 1 |
| Cn1cnnc1CC1(c2cccc(N3Cc4c(cc(CN5CCC(F)(F)[C@H](C#N)C5)cc4C(F)(F)F)C3=O)c2)COC1 [Compound 11, (S)-4,4-difluoro-1-((2-(3-(3-((4-methyl-4H-1,2,4-triazol-3-yl)methyl)oxetan-3-yl)phenyl)-3-oxo-7-(trifluoromethyl)isoindolin-5-yl)methyl)piperidine-3-carbonitrile] | 1 to 5 | < 10 | 11 to 15 | < 0.33 | < 0.33 | 1.25 to 1.39 | 1.25 to 1.39 | < 1.04 | < 1.04 | 1 to 5 |
| Cn1cnnc1CC1(c2cccc(N3Cc4c(cc(CN5CCCC6(COC6)C5)cc4C(F)(F)F)C3=O)c2)COC1 [Compound 12, 6-((2-oxa-6-azaspiro[3.5]nonan-6-yl)methyl)-2-(3-(3-((4-methyl-4H-1,2,4-triazol-3-yl)methyl)oxetan-3-yl)phenyl)-4-(trifluoromethyl)isoindolin-1-one] | 5.1 to 100 | < 10 | 11 to 15 | < 0.33 | < 0.33 | 1.25 to 1.39 | 1.25 to 1.39 | < 1.04 | 1.05 to 1.14 | 5.1 to 100 |
| Cn1cnnc1CC1(c2cccc(N3Cc4c(cc(CN5CCC(F)(F)[C@]6(CCOC6)C5)cc4C(F)(F)F)C3=O)c2)COC1 [Compound 13, (R)-6-((10,10-difluoro-2-oxa-7-azaspiro[4.5]decan-7-yl)methyl)-2-(3-(3-((4-methyl-4H-1,2,4-triazol-3-yl)methyl)oxetan-3-yl)phenyl)-4-(trifluoromethyl)isoindolin-1-one] | 1 to 5 | 11 to 15 | 11 to 15 | 0.34 to 0.66 | 0.34 to 0.66 | < 1.24 | < 1.24 | 1.05 to 1.14 | < 1.04 | – |
| Cn1cnnc1CC1(c2cccc(N3Cc4c(cc(CN5CCC(F)(F)[C@@]6(CCOC6)C5)cc4C(F)(F)F)C3=O)c2)COC1 [Compound 14, (S)-6-((10,10-difluoro-2-oxa-7-azaspiro[4.5]decan-7-yl)methyl)-2-(3-(3-((4-methyl-4H-1,2,4-triazol-3-yl)methyl)oxetan-3-yl)phenyl)-4-(trifluoromethyl)isoindolin-1-one] | 1 to 5 | < 10 | 11 to 15 | 0.34 to 0.66 | 0.34 to 0.66 | < 1.24 | < 1.24 | 1.05 to 1.14 | < 1.04 | – |
